Reference: US20180318311A1, “TRICYCLIC 2-QUINOLINONES AS ANTIBACTERIALS” (priority 2017, published 2018)
≈ marks a conversion by molar mass, not a printed value.

Legend:
Assay type in all cases: cell-based
[1] = system: S. aureus NB01006-AVR005, gyrA (S84L), grlA (580F) and grlB (E471K); test: microbe, parasite or virus in culture; settings: Staphylococcus aureus, 20 h, read-out: Antibacterial activity (MIC) NB01006-AVR005
How it was run: (§1)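 CAMHB, ~5×10^5 CFU/mL, 2-fold serial dilutions (final DMSO 1%), 35° C, ambient air, 20 h. Read OD600 plus visual check; MIC = lowest conc. with no visible growth, μg/mL.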

[2] = system: P. aeruginosa NB52019, wild-type PAO1 strain; test: MIC by broth microdilution, P. aeruginosa NB52019; settings: Pseudomonas aeruginosa, CAMHB, 35° C., 20 hours, read-out: Antibacterial activity (MIC) NB52019
How it was run: as §1

[3] = system: E. faecalis ATCC 29212 (NB04001); test: MIC by broth microdilution, E. faecalis NB04001; settings: Enterococcus faecalis, ATCC29212, CAMHB, 35° C., 20 hours, read-out: Antibacterial activity (MIC) NB04001
How it was run: as §1

[4] = system: S. pneumoniae ATCC 25922 (NB07001); test: MIC by broth microdilution, S. pneumoniae NB07001; settings: Streptococcus pneumoniae, ATCC25922, 20 h, read-out: Antibacterial activity (MIC) NB07001
How it was run: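 CLSI broth microdilution in CAMHB, inoculum ~5×10^5 CFU/mL, two-fold compound dilutions at 1% final DMSO. Plates incubated 20 h at 35°C in ambient air; MIC (μg/mL) is the lowest concentration preventing visible growth, confirmed by OD600.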

[5] = system: S. aureus NB01080 fluoroquinolone-resistant clinical isolate; test: MIC by broth microdilution, S. aureus NB01080; settings: Staphylococcus aureus, CAMHB, 35° C., 20 hours, read-out: Antibacterial activity (MIC) NB01080
How it was run: as §1

[6] = system: E. coli ATCC 25922 (NB27001); test: MIC by broth microdilution, E. coli NB27001; settings: Escherichia coli, ATCC25922, CAMHB, 35° C., 20 hours, read-out: Antibacterial activity (MIC) NB27001
How it was run: as §1

[7] = system: S. aureus ATCC 49951 (NB01006); test: MIC by broth microdilution, S. aureus NB01006; settings: Staphylococcus aureus, ATCC49951, CAMHB, 35° C., 20 hours, read-out: Antibacterial activity (MIC) NB01006
How it was run: as §1

Row | SMILES | MIC [1] | MIC [2] | MIC [3] | MIC [4] | MIC [5] | MIC [6] | MIC [7]
1 | C[C@H]1COc2c(N3Cc4cncnc4C3)c(F)cc3cc(C(=O)O)c(=O)n1c23 [Example 1.31, (S)-10-(5,7-dihydro-6H-pyrrolo[3,4-d]pyrimidin-6-yl)-9-fluoro-3-methyl-5-oxo-2,3-dihydro-5H-[1,4]oxazino[2,3,4-ij]quinoline-6-carboxylic acid] | > 32 µg/mL | > 32 µg/mL | 1 to 32 µg/mL (≈ 2.62 to 83.7 µM) | < 1 µg/mL | 1 to 32 µg/mL (≈ 2.62 to 83.7 µM) | 1 to 32 µg/mL (≈ 2.62 to 83.7 µM) | < 1 µg/mL
2 | C[C@H]1COc2c(N3CC[C@@H](C(C)(C)O)C3)c(F)cc3cc(C(=O)O)c(=O)n1c23 [Example 1.34, (S)-9-fluoro-10-((R)-3-(2-hydroxypropan-2-yl)pyrrolidin-1-yl)-3-methyl-5-oxo-2,3-dihydro-5H-[1,4]oxazino[2,3,4-ij]quinoline-6-carboxylic acid] | > 32 µg/mL | > 32 µg/mL | > 32 µg/mL | > 32 µg/mL | > 32 µg/mL | > 32 µg/mL | 1 to 32 µg/mL (≈ 2.56 to 82 µM)
3 | C[C@H]1COc2c(N3CC[C@H](C4(N)CC4)C3)c(F)cc3cc(C(=O)O)c(=O)n1c23 [Example 1.35, (S)-10-((S)-3-(1-aminocyclopropyl)pyrrolidin-1-yl)-9-fluoro-3-methyl-5-oxo-2,3-dihydro-5H-[1,4]oxazino[2,3,4-ij]quinoline-6-carboxylic acid] | > 32 µg/mL | > 32 µg/mL | 1 to 32 µg/mL (≈ 2.58 to 82.6 µM) | 1 to 32 µg/mL (≈ 2.58 to 82.6 µM) | 1 to 32 µg/mL (≈ 2.58 to 82.6 µM) | 1 to 32 µg/mL (≈ 2.58 to 82.6 µM) | 1 to 32 µg/mL (≈ 2.58 to 82.6 µM)
4 | CN[C@@H](C)[C@@H]1CCN(c2c(F)cc3cc(C(=O)O)c(=O)n4c3c2OC[C@@H]4C)C1 [Example 1.36, (S)-9-fluoro-3-methyl-10-((R)-3-((S)-1-(methylamino)ethyl)pyrrolidin-1-yl)-5-oxo-2,3-dihydro-5H-[1,4]oxazino[2,3,4-ij]quinoline-6-carboxylic acid] | 1 to 32 µg/mL (≈ 2.57 to 82.2 µM) | > 32 µg/mL | < 1 µg/mL | < 1 µg/mL | < 1 µg/mL | 1 to 32 µg/mL (≈ 2.57 to 82.2 µM) | < 1 µg/mL
5 | C[C@H]1COc2c(N3CC4CNCC4C3)c(F)cc3cc(C(=O)O)c(=O)n1c23 (stereo partly drawn) [Example 1.37, (3S)-9-fluoro-10-(hexahydropyrrolo[3,4-c]pyrrol-2(1H)-yl)-3-methyl-5-oxo-2,3-dihydro-5H-[1,4]oxazino[2,3,4-ij]quinoline-6-carboxylic acid] | > 32 µg/mL | > 32 µg/mL | > 32 µg/mL | > 32 µg/mL | > 32 µg/mL | > 32 µg/mL | > 32 µg/mL
6 | CO/N=C1\CN(c2c(F)cc3cc(C(=O)O)c(=O)n4c3c2OC[C@@H]4C)CC1CN (stereo partly drawn) [Example 1.40, (3S)-10-((Z)-3-(aminomethyl)-4-(methoxyimino)pyrrolidin-1-yl)-9-fluoro-3-methyl-5-oxo-2,3-dihydro-5H-[1,4]oxazino[2,3,4-ij]quinoline-6-carboxylic acid] | 1 to 32 µg/mL (≈ 2.47 to 79.1 µM) | > 32 µg/mL | 1 to 32 µg/mL (≈ 2.47 to 79.1 µM) | < 1 µg/mL | 1 to 32 µg/mL (≈ 2.47 to 79.1 µM) | 1 to 32 µg/mL (≈ 2.47 to 79.1 µM) | 1 to 32 µg/mL (≈ 2.47 to 79.1 µM)
7 | CNC[C@@H]1CCN(c2c(F)cc3cc(C(=O)O)c(=O)n4c3c2OC[C@@H]4C)C1 [Example 1.41, (S)-9-fluoro-3-methyl-10-((S)-3-((methylamino)methyl)pyrrolidin-1-yl)-5-oxo-2,3-dihydro-5H-[1,4]oxazino[2,3,4-ij]quinoline-6-carboxylic acid] | 1 to 32 µg/mL (≈ 2.66 to 85.2 µM) | > 32 µg/mL | 1 to 32 µg/mL (≈ 2.66 to 85.2 µM) | < 1 µg/mL | 1 to 32 µg/mL (≈ 2.66 to 85.2 µM) | 1 to 32 µg/mL (≈ 2.66 to 85.2 µM) | < 1 µg/mL
8 | CC(O)C1(F)CCN(c2c(F)cc3cc(C(=O)O)c(=O)n4c3c2OC[C@@H]4C)C1 (stereo partly drawn) [Example 1.44, (3S)-9-fluoro-10-(3-fluoro-3-(1-hydroxyethyl)pyrrolidin-1-yl)-3-methyl-5-oxo-2,3-dihydro-5H-[1,4]oxazino[2,3,4-ij]quinoline-6-carboxylic acid] | > 32 µg/mL | > 32 µg/mL | 1 to 32 µg/mL (≈ 2.54 to 81.1 µM) | 1 to 32 µg/mL (≈ 2.54 to 81.1 µM) | > 32 µg/mL | 1 to 32 µg/mL (≈ 2.54 to 81.1 µM) | < 1 µg/mL
9 | C[C@H]1COc2c(N3C[C@H]4[C@@H](C3)S(=O)(=O)C[C@@H]4N)c(F)cc3cc(C(=O)O)c(=O)n1c23 [Example 1.51, (S)-10-((3R,3aR,6aS)-3-amino-1,1-dioxidohexahydro-5H-thieno[2,3-c]pyrrol-5-yl)-9-fluoro-3-methyl-5-oxo-2,3-dihydro-5H-[1,4]oxazino[2,3,4-ij]quinoline-6-carboxylic acid] | > 32 µg/mL | > 32 µg/mL | > 32 µg/mL | > 32 µg/mL | > 32 µg/mL | > 32 µg/mL | > 32 µg/mL
10 | C[C@H]1COc2c(N3CC[C@@H]([C@@H](N)C4CC4)C3)c(F)cc3cc(C(=O)O)c(=O)n1c23 [Example 1.52, (S)-10-((R)-3-((S)-amino(cyclopropyl)methyl)pyrrolidin-1-yl)-9-fluoro-3-methyl-5-oxo-2,3-dihydro-5H-[1,4]oxazino[2,3,4-ij]quinoline-6-carboxylic acid] | 1 to 32 µg/mL (≈ 2.49 to 79.7 µM) | > 32 µg/mL | < 1 µg/mL | < 1 µg/mL | < 1 µg/mL | < 1 µg/mL | < 1 µg/mL
11 | C[C@H]1COc2c(N3CC[C@@H]([C@@H](N)C(F)F)C3)c(F)cc3cc(C(=O)O)c(=O)n1c23 [Example 1.53, (S)-10-((R)-3-((R)-1-amino-2,2-difluoroethyl)pyrrolidin-1-yl)-9-fluoro-3-methyl-5-oxo-2,3-dihydro-5H-[1,4]oxazino[2,3,4-ij]quinoline-6-carboxylic acid] | 1 to 32 µg/mL (≈ 2.43 to 77.8 µM) | > 32 µg/mL | < 1 µg/mL | < 1 µg/mL | < 1 µg/mL | 1 to 32 µg/mL (≈ 2.43 to 77.8 µM) | < 1 µg/mL
12 | C[C@H]1COc2c(N3CCCN(CC(F)F)CC3)c(F)cc3cc(C(=O)O)c(=O)n1c23 [Example 1.54, (S)-10-(4-(2,2-difluoroethyl)-1,4-diazepan-1-yl)-9-fluoro-3-methyl-5-oxo-2,3-dihydro-5H-[1,4]oxazino[2,3,4-ij]quinoline-6-carboxylic acid] | > 32 µg/mL | > 32 µg/mL | > 32 µg/mL | > 32 µg/mL | > 32 µg/mL | > 32 µg/mL | 1 to 32 µg/mL (≈ 2.35 to 75.2 µM)
13 | C[C@H]1COc2c(N3CCNC4(CC3)CC4)c(F)cc3cc(C(=O)O)c(=O)n1c23 [Example 1.55, (S)-9-fluoro-3-methyl-5-oxo-10-(4,7-diazaspiro[2.6]nonan-7-yl)-2,3-dihydro-5H-[1,4]oxazino[2,3,4-ij]quinoline-6-carboxylic acid] | > 32 µg/mL | > 32 µg/mL | 1 to 32 µg/mL (≈ 2.58 to 82.6 µM) | 1 to 32 µg/mL (≈ 2.58 to 82.6 µM) | 1 to 32 µg/mL (≈ 2.58 to 82.6 µM) | 1 to 32 µg/mL (≈ 2.58 to 82.6 µM) | 1 to 32 µg/mL (≈ 2.58 to 82.6 µM)
14 | C[C@H]1COc2c(N3CC[C@@H]([C@@H](N)CF)C3)c(F)cc3cc(C(=O)O)c(=O)n1c23 [Example 1.56, (S)-10-((R)-3-((R)-1-amino-2-fluoroethyl)pyrrolidin-1-yl)-9-fluoro-3-methyl-5-oxo-2,3-dihydro-5H-[1,4]oxazino[2,3,4-ij]quinoline-6-carboxylic acid] | 1 to 32 µg/mL (≈ 2.54 to 81.3 µM) | 1 to 32 µg/mL (≈ 2.54 to 81.3 µM) | < 1 µg/mL | < 1 µg/mL | < 1 µg/mL | < 1 µg/mL | < 1 µg/mL
